Source: patent publication US20070254931A1, “Thiazole Derivatives Having Vap-1 Inhibitory Activity” (Astellas Pharma Inc., priority 2004, published 2007)
Where a name gives a salt, the structure may show the parent alone.

Tested on: not given
Test: not given
Conditions: not given

| melting point | Compound |
| --- | --- |
| 217 to 218.5 °C | CC(=O)Nc1nc(-c2ccc(CCNC(=N)N)cc2)c(Cc2ccc(S(C)(=O)=O)cc2)s1.Cl |
| 212 to 213.5 °C | CC(=O)Nc1nc(CCc2ccc(NC(=N)N)cc2)c(Cc2cccc(S(C)(=O)=O)c2)s1 [Production Example 1, N-{4-[2-(4-{[amino(imino)methyl]amino}phenyl)ethyl]-5-[3-(methylsulfonyl)benzyl]-1,3-thiazol-2-yl}acetamide] |

Target: T1, Human plasma SSAO (Homo sapiens, UniProt Q16853)
T1 construct: The enzyme suspension prepared from blood plasma was pre-incubated with a control compound; from tissue; host or cells: human blood plasma
T1 sequence (Q16853 27-763 limits assumed): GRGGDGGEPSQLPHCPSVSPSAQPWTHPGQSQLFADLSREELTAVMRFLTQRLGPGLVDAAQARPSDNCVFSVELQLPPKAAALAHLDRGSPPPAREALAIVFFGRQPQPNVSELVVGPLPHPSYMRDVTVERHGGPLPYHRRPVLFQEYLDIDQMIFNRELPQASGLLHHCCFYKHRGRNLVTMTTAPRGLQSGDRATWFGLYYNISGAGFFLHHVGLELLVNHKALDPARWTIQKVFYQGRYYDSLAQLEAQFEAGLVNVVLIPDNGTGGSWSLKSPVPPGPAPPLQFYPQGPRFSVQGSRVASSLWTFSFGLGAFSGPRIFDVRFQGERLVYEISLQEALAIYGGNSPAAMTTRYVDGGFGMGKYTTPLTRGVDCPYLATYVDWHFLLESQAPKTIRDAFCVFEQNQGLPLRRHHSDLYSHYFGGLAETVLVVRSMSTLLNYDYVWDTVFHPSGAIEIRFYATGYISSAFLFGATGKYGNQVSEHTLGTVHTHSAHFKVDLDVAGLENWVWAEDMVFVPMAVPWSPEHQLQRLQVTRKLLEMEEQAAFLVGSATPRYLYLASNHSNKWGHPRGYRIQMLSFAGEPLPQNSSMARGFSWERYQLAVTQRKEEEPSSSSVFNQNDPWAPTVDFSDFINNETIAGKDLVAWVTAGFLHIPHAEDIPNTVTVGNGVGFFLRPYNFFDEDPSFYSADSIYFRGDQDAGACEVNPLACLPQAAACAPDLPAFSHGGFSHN
Test: VAP-1 enzyme (SSAO) activity in human plasma, radiochemical-enzyme assay with 14C-benzylamine
Format: biochemical
Conditions: human plasma enzyme suspension; pre-incubation 30 min at room temperature; 14C-benzylamine 2×10^−5 mol/l, 37° C., 1 hour; read-out: Inhibitory effect (IC50 values, μM) Human plasma SSAO
Description: VAP-1 enzyme (SSAO) activity in human plasma was determined by a radiochemical-enzyme assay using ^14C-benzylamine as an artificial substrate. The enzyme suspension prepared from blood plasma was pre-incubated with a control compound (Reference Example 1) in 96-well microplate at room temperature for 30 min. The enzyme suspension was then incubated with ^14C-benzylamine (2×10^−5 mol/l final concentration) in a final volume of 50 μl at 37° C. for 1 hour. The enzyme reaction was terminated by adding 2 mol/l (50 μl) citric acid. The oxidized products were directly extracted into a 200 μl toluene scintillator, and its radioactivity was measured by a scintillation spectrometer. Inhibition activity was expressed as IC50 (μmol/l) value.
Test compounds (i.e., the present compounds) inhibited the enzyme activity of human plasma SSAO in comparison with the control compound as shown in Table 1.

| IC50 | Compound |
| --- | --- |
| 0.016 µM | CC(=O)Nc1nc(CCc2ccc(NC(=N)N)cc2)c(Cc2cccc(S(C)(=O)=O)c2)s1 [Production Example 1, N-{4-[2-(4-{[amino(imino)methyl]amino}phenyl)ethyl]-5-[3-(methylsulfonyl)benzyl]-1,3-thiazol-2-yl}acetamide] |
| 0.0045 µM | CC(=O)Nc1nc(CCc2ccc(NC(=N)N)cc2)c(Cc2ccc(S(N)(=O)=O)cc2)s1 [Production Example 3, N-{4-[2-(4-{[amino(imino)methyl]amino}phenyl)ethyl]-5-[4-(aminosulfonyl)benzyl]-1,3-thiazol-2-yl}acetamide hydrochloride] |
| 0.019 µM | CC(=O)Nc1nc(CCc2ccc(NC(=N)N)cc2)c(CN2CC[C@@H](C(=O)N(C)C)C2)s1 [Production Example 12, (3R)-1-({2-(acetylamino)-4-[2-(4-{[amino(imino)methyl]amino}phenyl)ethyl]-1,3-thiazol-5-yl}methyl)-N,N-dimethyl-3-pyrrolidinecarboxamide dihydrochloride] |
| 0.014 µM | CC(=O)Nc1nc(CCc2ccc(NC(=N)N)cc2)c(CN2CC[C@H](C(=O)N(C)C)C2)s1 [Production Example 14, (3S)-1-({2-(acetylamino)-4-[2-(4-{[amino(imino)methyl]amino}phenyl)ethyl]-1,3-thiazol-5-yl}methyl)-N,N-dimethyl-3-pyrrolidinecarboxamide dihydrochloride] |
| 0.032 µM | CC(=O)Nc1nc(CCc2ccc(NC(=N)N)cc2)c(CN(C)C(=O)c2ccc([N+](=O)[O-])cc2)s1 [Production Example 19, N-({2-(acetylamino)-4-[2-(4-{[amino(imino)methyl]amino}phenyl)ethyl]-1,3-thiazol-5-yl}methyl)-N-methyl-4-nitrobenzamide hydrochloride] |

Further lines, the molecule ahead of its results:

| Compound | IC50 |
| --- | --- |
| CC(=O)Nc1nc(-c2ccc(CCCCNC(=N)N)cc2)cs1 [Production Example 7, N-{4-[4-(4-{[amino(imino)methyl]amino}butyl)phenyl]-1,3-thiazol-2-yl}acetamide hydrochloride] | 0.015 µM |
| CC(=O)Nc1nc(CCc2ccc(CC(=O)NC(=N)N)cc2)cs1 [Production Example 9, 2-(4-{2-[2-(acetylamino)-1,3-thiazol-4-yl]ethyl}phenyl)-N-[amino(imino)methyl]acetamide] | 0.0026 µM |
| CC(=O)Nc1nc(CCc2ccc(NC(=N)N)cc2)c(CN(C)C(=O)c2ccc(S(C)(=O)=O)cc2)s1 [Production Example 16, N-({2-(acetylamino)-4-[2-(4-{[amino(imino)methyl]amino}phenyl)ethyl]-1,3-thiazol-5-yl}methyl)-N-methyl-4-(methylsulfonyl)benzamide hydrochloride] | 0.012 µM |
| CC(=O)Nc1nc(CCc2ccc(CCNC(=N)N)cc2)cs1 [Production Example 25, N-(4-{2-[4-(2-{[amino(imino)methyl]amino}ethyl)phenyl]ethyl}-1,3-thiazol-2-yl)acetamide] | 0.0057 µM |
| CC(=O)Nc1nc(CCc2ccc(NC(=N)N)cc2)cs1 [Reference Example 1, N-{4-[2-(4-{[amino(imino)methyl]amino}phenyl)ethyl]-1,3-thiazol-2-yl}acetamide, reference compound] | 0.033 µM |
